Like-named read-outs stand apart in the source and are kept apart here.

The values below come from patent publication US7888386B2, “3-(phenoxyphenylmethyl)pyrrolidine compounds” (Theravance, Inc., priority 2008, dated 2011).

Assay [1] addresses T1, hNET (Homo sapiens, UniProt P23975).
T1 construct: expressed in transfected cells; host or cells: HEK-293 derived cell line, stably transfected; membrane preparation
The assay can be described thus: hNET binding assay (Assay 1). As to conditions: read-out: NET pKi (converted). As for the experimental part: (§1) Membrane radioligand binding assays were used to measure competitive inhibition of labeled ligand (^3H-citalopram or ^3H-nisoxetine or ^3H-WIN35428) binding to membranes prepared from cells expressing the respective human recombinant transporter (hSERT or hNET or hDAT) in order to determine the pKi values of test compounds at the transporters.
(§2) Recombinant human embryonic kidney (HEK-293) derived cell lines stably transfected with hSERT or hNET, respectively, were grown in DMEM medium supplemented with 10% dialyzed FBS (for hSERT) or FBS (for hNET), 100 μg/ml penicillin, 100 μg/ml streptomycin, 2 mM L-glutamine and 250 μg/ml of the aminoglycoside antibiotic G418, in a 5% CO2 humidified incubator at 37° C. When cultures reached 80% confluence, the cells were washed thoroughly in PBS (without Ca^2+ and Mg^2+) and lifted with 5 mM EDTA in PBS. Cells were pelleted by centrifugation, resuspended in lysis buffer (10 mM Tris-HCl, pH 7.5 containing 1 mM EDTA), homogenized, pelleted by centrifugation, then resuspended in 50 mM Tris-HCl, pH 7.5 and 10% sucrose at 4° C. Protein concentration of the membrane suspension was determined using a Bio-Rad Bradford Protein Assay kit. Membranes were snap frozen and stored at −80° C. Chinese hamster ovary membranes expressing hDAT (CHO-DAT) were purchased from PerkinElmer and stored at −80° C.
(§3) Stock solutions (10 mM in DMSO) of test compound were prepared and serial dilutions made using Dilution Buffer (50 mM Tris-HCl, 120 mM NaCl, 5 mM KCl, pH 7.4, 0.1% BSA, 400 μM ascorbic acid).
(§4) Following a 60 minute incubation at 22° C. (or a period sufficient to reach equilibrium), the membranes were harvested by rapid filtration over a 96-well UniFilter GF/B plate, pretreated with 0.3% polyethyleneimine, and washed 6 times with 300 μl wash buffer (50 mM Tris-HCl, 0.9% NaCl, pH 7.5 at 4° C.). Plates were dried overnight at room temperature, ˜45 μl of MicroScint™-20 (Perkin Elmer) added and bound radioactivity quantitated via liquid scintillation spectroscopy. Competitive inhibition curves and saturation isotherms were analyzed using GraphPad Prism Software package (GraphPad Software, Inc., San Diego, Calif.). IC50 values were generated from concentration response curves using the Sigmoidal Dose Response (variable slope) algorithm in Prism GraphPad.

Assay [2] has as its target T2, hSERT (Homo sapiens, UniProt P31645).
T2 construct: expressed in transfected cells; host or cells: HEK-293 derived cell line, stably transfected; membrane preparation
The assay can be described thus: hSERT binding assay (Assay 1). As for the experimental part: as §1, §2, §3, §4

Setting [3] is: membranes of HEK-293 cells expressing hNET, 1.0 nM 3H-nisoxetine.
[4] abbreviates: ratio of binding Ki at hSERT to Ki at hNET, rounded off to the nearest tenth.
[5] abbreviates: ratio of SERT Ki to NET Ki (binding).
Setting [6] is: ratio of SERT Ki to NET Ki from binding assays.
Where [7] appears, read: hNET binding, the tables list only compounds with NET pKi≧8.
[8] abbreviates: ratio of binding Ki at SERT to Ki at NET, the tables list only compounds with a ratio in the range 0.1-100.

T2 sequence (P31645 whole entry): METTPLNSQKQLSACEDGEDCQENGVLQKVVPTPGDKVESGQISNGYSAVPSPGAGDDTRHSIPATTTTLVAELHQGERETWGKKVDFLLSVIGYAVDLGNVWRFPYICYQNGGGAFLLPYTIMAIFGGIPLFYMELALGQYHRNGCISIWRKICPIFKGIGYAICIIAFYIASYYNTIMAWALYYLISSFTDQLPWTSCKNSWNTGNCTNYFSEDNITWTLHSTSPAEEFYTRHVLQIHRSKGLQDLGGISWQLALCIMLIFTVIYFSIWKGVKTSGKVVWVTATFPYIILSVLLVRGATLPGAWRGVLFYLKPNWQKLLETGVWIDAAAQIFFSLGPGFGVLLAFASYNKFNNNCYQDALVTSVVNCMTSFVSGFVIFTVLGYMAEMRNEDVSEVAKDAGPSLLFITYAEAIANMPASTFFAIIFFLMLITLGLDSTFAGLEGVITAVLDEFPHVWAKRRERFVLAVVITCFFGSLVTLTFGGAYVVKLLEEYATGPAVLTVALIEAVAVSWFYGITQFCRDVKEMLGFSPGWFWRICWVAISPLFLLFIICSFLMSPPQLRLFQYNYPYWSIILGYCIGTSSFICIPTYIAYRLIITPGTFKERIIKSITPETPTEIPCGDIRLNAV
T1 sequence (P23975 whole entry): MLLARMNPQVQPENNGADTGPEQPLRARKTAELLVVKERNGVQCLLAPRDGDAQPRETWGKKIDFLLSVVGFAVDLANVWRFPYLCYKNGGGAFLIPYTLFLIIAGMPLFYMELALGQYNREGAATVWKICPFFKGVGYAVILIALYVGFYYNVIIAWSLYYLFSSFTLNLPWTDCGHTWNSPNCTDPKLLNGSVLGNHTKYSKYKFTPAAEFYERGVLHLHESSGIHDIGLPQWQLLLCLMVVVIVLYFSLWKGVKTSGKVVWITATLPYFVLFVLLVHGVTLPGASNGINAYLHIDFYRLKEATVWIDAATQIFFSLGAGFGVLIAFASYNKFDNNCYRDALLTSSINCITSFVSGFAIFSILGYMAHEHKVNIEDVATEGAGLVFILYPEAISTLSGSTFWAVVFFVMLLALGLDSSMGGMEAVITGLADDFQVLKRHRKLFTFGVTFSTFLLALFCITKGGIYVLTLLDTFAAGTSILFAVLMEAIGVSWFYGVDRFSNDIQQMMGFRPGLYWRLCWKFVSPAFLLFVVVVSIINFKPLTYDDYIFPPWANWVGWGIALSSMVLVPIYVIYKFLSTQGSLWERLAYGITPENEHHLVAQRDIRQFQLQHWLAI

Consider `Fc1cccc(O[C@H](c2ccccc2)[C@@H]2CCNC2)c1F` [Compound 25-2], for which, in assay [1] (setting [3]), the Ki was 6.31 nM. Also, the “SERT Ki/NET Ki” value in assay [2] (setting [4]) worked out at 0.2.
Turning to `FC(F)(F)c1ccccc1OC(c1ccccc1)C1CCNC1` (centres unmarked) [Compound 19-13], the Ki in assay [1] (setting [3]) is 2.51 nM. Besides, in assay [2] (setting [4]), the “SERT Ki/NET Ki” value is 7.9.
For the compound `CC(C)c1ccccc1OC(c1cccc(F)c1)C1CCNC1` (centres unmarked) [Compound 20-13], in assay [1] (setting [3]), the Ki was 5.01 nM. Also, the “SERT Ki/NET Ki” value in assay [2] (setting [4]) is reported as 10.
As for `NC(=O)c1cccc(C(Oc2c(F)ccc(F)c2Cl)C2CCNC2)c1` (centres unmarked) [41-36], in assay [1] (hNET binding), the Ki was 1 nM. The “SERT Ki/NET Ki” value in assay [2] (setting [5]) was determined as 7.9.
Consider `COc1ccc(Cl)cc1OC(c1ccccc1)C1CCNC1` (centres unmarked) [29-21], for which, in assay [1] (hNET binding assay), the Ki was 3.16 nM. The “SERT Ki/NET Ki” value in assay [2] (setting [6]) was found to be 1.
In the case of `Clc1cccc(C(Oc2cccc(Cl)c2Cl)C2CCNC2)c1` (centres unmarked) [Compound 26-3], the Ki in assay [1] (hNET binding assay) was 5.01 nM. Moreover, in assay [2] (setting [6]), the “SERT Ki/NET Ki” value worked out at 0.1.
As to `Fc1cc(Cl)c(O[C@@H](c2ccccc2)[C@H]2CCNC2)c(Cl)c1` [44-21], the Ki in assay [1] (setting [7]) is 6.31 nM. Moreover, in assay [2] (setting [8]), the “SERT Ki/NET Ki” value was found to be 0.5.
Consider `COc1ccc(F)c(OC(c2ccccc2)C2CCNC2)c1F` (centres unmarked) [40-4], for which the Ki in assay [1] (hNET binding) was 0.631 nM. For the same compound, the “SERT Ki/NET Ki” value in assay [2] (setting [5]) was determined as 6.3.
For `CC(C)c1ccccc1OC(c1cccc(Cl)c1)C1CCNC1` (centres unmarked) [Compound 20-12], the Ki in assay [1] (setting [3]) is 5.01 nM. In assay [2] (setting [4]), the “SERT Ki/NET Ki” value turned out to be 7.9.
Turning to `COc1cccc(C(Oc2ccccc2C(C)C)C2CCNC2)c1` (centres unmarked) [Compound 20-10], the Ki in assay [1] (setting [3]) was 5.01 nM. Further, the “SERT Ki/NET Ki” value in assay [2] (setting [4]) was 2.5.
As for `COc1ccc(F)cc1O[C@@H](c1cc(F)cc(F)c1)[C@H]1CCNC1` [30-5], the Ki in assay [1] (hNET binding assay) was 0.501 nM. Besides, in assay [2] (setting [6]), the “SERT Ki/NET Ki” value is given as 79.
On the same counts, the results for `COC(=O)c1cccc(Cl)c1O[C@@H](c1ccccc1)[C@H]1CCNC1` [31-17] are 3.16 nM and 25.
With `Cc1ccc(OC(c2ccccc2)C2CCNC2)c(F)c1F` (centres unmarked) [36-5], the Ki in assay [1] (hNET binding) was 1.26 nM. The “SERT Ki/NET Ki” value in assay [2] (setting [5]) is 0.5.
On to `Fc1cccc(C(Oc2cccc(Cl)c2)C2CCNC2)c1` (centres unmarked) [Compound 22-3], for which, in assay [1] (setting [3]), the Ki is 7.94 nM. Further, in assay [2] (setting [4]), the “SERT Ki/NET Ki” value was 0.1.
Consider `COc1ccccc1O[C@@H](c1cc(C)cc(F)c1)[C@@H]1CCNC1` (racemic) [Compound 20-37], for which the Ki in assay [1] (setting [3]) was 6.31 nM. Also, the “SERT Ki/NET Ki” value in assay [2] (setting [4]) was found to be 13.
Turning to `Fc1cc(F)cc([C@H](Oc2c(F)cc(F)cc2F)[C@H]2CCNC2)c1` [45-1], the Ki in assay [1] (setting [7]) was 3.98 nM. Moreover, the “SERT Ki/NET Ki” value in assay [2] (setting [8]) was 7.9.
With `Clc1cc(Br)cc(OC(c2ccccc2)C2CCNC2)c1` (centres unmarked) [34-11], in assay [1] (hNET binding assay), the Ki was 2.51 nM. Further, in assay [2] (setting [6]), the “SERT Ki/NET Ki” value came to 0.1.
Consider `Fc1cc(F)c(F)c(O[C@H](c2ccccc2)[C@@H]2CCNC2)c1` [38-1], for which the Ki in assay [1] (hNET binding) was 5.01 nM. Moreover, the “SERT Ki/NET Ki” value in assay [2] (setting [5]) came out at 0.2.
As for `Cc1ccc(F)c(O[C@@H](c2ccccc2)[C@H]2CCNC2)c1` [29-9], the Ki in assay [1] (hNET binding assay) was 1.26 nM. Besides, the “SERT Ki/NET Ki” value in assay [2] (setting [6]) was found to be 10.
Turning to `N#Cc1cccc([C@H](Oc2ccc(Cl)cc2F)[C@H]2CCNC2)c1` [28-3], the Ki in assay [1] (hNET binding assay) is 6.31 nM. Moreover, the “SERT Ki/NET Ki” value in assay [2] (setting [6]) was 0.5.
As for `Cc1ccc(F)c(O[C@@H](c2ccccc2)[C@H]2CCNC2)c1F` [40-26], the Ki in assay [1] (hNET binding) was 0.251 nM. Further, in assay [2] (setting [5]), the “SERT Ki/NET Ki” value was 20.
For `COc1c(F)cccc1O[C@@H](c1ccccc1)[C@H]1CCNC1` [Compound 25-26], the Ki in assay [1] (setting [3]) is 1.26 nM. Further, the “SERT Ki/NET Ki” value in assay [2] (setting [4]) was 13.
Turning to `Fc1c(Cl)cccc1O[C@H](c1ccccc1)[C@@H]1CCNC1` [Compound 25-5], in assay [1] (setting [3]), the Ki was 1.58 nM. The “SERT Ki/NET Ki” value in assay [2] (setting [4]) was determined as 0.1.
Regarding `COc1ccccc1OC(c1cc(F)cc(Cl)c1)C1CCNC1` (centres unmarked) [Compound 20-35], the Ki in assay [1] (setting [3]) was 0.631 nM. For the same compound, in assay [2] (setting [4]), the “SERT Ki/NET Ki” value is 16.
On to `Fc1cc(F)c(Cl)c(OC(c2ccccc2)C2CCNC2)c1F` (centres unmarked) [47-6], for which, in assay [1] (setting [7]), the Ki was 0.398 nM. The “SERT Ki/NET Ki” value in assay [2] (setting [8]) came out at 6.3.
